biological target: T1, human M4 receptor (Homo sapiens, UniProt P08173); experiment: Radioligand ([3H]N-methylscopolamine) binding assay, membranes from CHO cells expressing human M4 receptor; conditions: Ki against human M4 receptor; membranes from CHO cells; tritiated N-methylscopolamine 1.5 nM; read-out: K
T1 construct: expressed in transfected cells; host or cells: CHO cells
T1 sequence (P08173 1-479): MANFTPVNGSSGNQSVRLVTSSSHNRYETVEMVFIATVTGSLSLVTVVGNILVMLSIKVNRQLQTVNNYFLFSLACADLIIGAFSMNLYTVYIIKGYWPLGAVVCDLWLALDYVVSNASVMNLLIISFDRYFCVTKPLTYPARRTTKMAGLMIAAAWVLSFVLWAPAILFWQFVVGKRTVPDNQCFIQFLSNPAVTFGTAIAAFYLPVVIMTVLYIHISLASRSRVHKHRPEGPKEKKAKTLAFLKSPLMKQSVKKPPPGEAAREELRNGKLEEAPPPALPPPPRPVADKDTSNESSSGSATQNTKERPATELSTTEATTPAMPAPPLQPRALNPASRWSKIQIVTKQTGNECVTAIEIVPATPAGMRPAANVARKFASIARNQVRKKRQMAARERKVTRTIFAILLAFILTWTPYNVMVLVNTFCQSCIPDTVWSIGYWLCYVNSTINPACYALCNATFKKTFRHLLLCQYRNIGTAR
Protocol: Binding affinity (Ki) for the compounds was measured by inhibition of radioligand binding to membranes from CHO cells expressing human M4 receptor. Membranes were prepared by nitrogen cavitation and differential centrifugation as previously described (Hoare et al., Mol. Pharmacol. 2003 March; 63(3): 751-65). The radioligand employed was tritiated N-methylscopolamine, used at a concentration of 1.5 nM. A dose-response of twelve concentrations of compound was used, ranging from […]. The assay buffer was 50 mM HEPES, 100 mM NaCl, 5 mM MgCl2, 1 mM ethylenediaminetetraacetic acid, pH-adjusted to pH 7.4. Membranes, radioligand and compound were incubated together for 90 minutes at 37° C., in a total volume of 150 μL in a 96-well plate. Receptor-bound radioligand was then collected by harvesting the assay over glass fiber filters pretreated with polyethylenimine to trap the cell membranes, using rapid vacuum filtration. Harvesting and radioactivity counting was conducted as previously described (see, e.g., Hoare et al., Mol. Pharmacol. 2003 63(3):751-65); Erratum at Mol. Pharmacol. 2005 July; 68(1): 260).

Ki [µM] | SMILES
0.01 to 0.1 | C[C@@H]1CN(c2nc3ccc(F)cc3o2)C[C@H](C)N1C(=O)OC1CC2(C1)CN(Cc1ccccc1)C2 [Compound 444, 2-benzyl-2-azaspiro[3.3]heptan-6-yl (2R,6S)-4-(6-fluoro-1,3-benzoxazol-2-yl)-2,6-dimethylpiperazine-1-carboxylate]
< 0.01 | Cc1ccc(CN2CC3(CC(NC(=O)N4[C@H](C)CN(c5ncc(C(F)(F)F)cn5)C[C@@H]4C)C3)C2)s1 [Compound 339, (2R,6S)-2,6-dimethyl-N-{2-[(5-methylthiophen-2-yl)methyl]-2-azaspiro[3.3]heptan-6-yl}-4-[5-(trifluoromethyl)pyrimidin-2-yl]piperazine-1-carboxamide]
< 0.01 | C[C@@H]1CN(c2ncc(C(F)(F)F)cn2)[C@@H](C)CN1C(=O)OC1CC2(C1)CN(Cc1ccc(F)cc1)C2 [Compound 456, 2-[(4-fluorophenyl)methyl]-2-azaspiro[3.3]heptan-6-yl (2R,5S)-2,5-dimethyl-4-[5-(trifluoromethyl)pyrimidin-2-yl]piperazine-1-carboxylate]
< 0.01 | C[C@@H]1CN(c2nc3cc(F)c(F)cc3s2)C[C@H](C)N1C(=O)OC1CC2(C1)CN(Cc1ccccc1)C2 [Compound 447, 2-benzyl-2-azaspiro[3.3]heptan-6-yl (2R,6S)-4-(5,6-difluoro-1,3-benzothiazol-2-yl)-2,6-dimethylpiperazine-1-carboxylate]
0.01 to 0.1 | C[C@@H]1CN(c2nc3cc(F)ccc3o2)C[C@H](C)N1C(=O)OC1CC2(C1)CN(Cc1ccccc1)C2 [Compound 441, 2-benzyl-2-azaspiro[3.3]heptan-6-yl (2R,6S)-4-(5-fluoro-1,3-benzoxazol-2-yl)-2,6-dimethylpiperazine-1-carboxylate]
0.01 to 0.1 | C[C@@H]1CN(c2ncc(C(F)(F)F)cn2)CCN1C(=O)OC1(C(F)F)CC2(CN(Cc3ccccc3)C2)C1 [Compound 349, 2-benzyl-6-(difluoromethyl)-2-azaspiro[3.3]heptan-6-yl (2R)-2-methyl-4-[5-(trifluoromethyl)pyrimidin-2-yl]piperazine-1-carboxylate]
0.1 to 1 | C[C@@H]1CN(c2nc3cc(F)ccc3o2)C[C@@H](C)N1C(=O)OC1CC2(C1)CN(Cc1ccccc1)C2 [Compound 442, 2-benzyl-2-azaspiro[3.3]heptan-6-yl (2R,6R)-4-(5-fluoro-1,3-benzoxazol-2-yl)-2,6-dimethylpiperazine-1-carboxylate]
< 0.01 | [2H]c1c([2H])c([2H])c(C([2H])([2H])N2CC3(CC(OC(=O)N4[C@H](C)CN(c5ncc(C(F)(F)F)cn5)C[C@@H]4C)C3)C2)c([2H])c1[2H] [Compound 387, 2-[(^2H5)phenyl(^2H2)methyl]-2-azaspiro[3.3]heptan-6-yl (2R,6S)-2,6-dimethyl-4-[5-(trifluoromethyl)pyrimidin-2-yl]piperazine-1-carboxylate]

The next lines start with the compound.

SMILES | Ki [µM]
O=C(OC1CC2(C1)CN(Cc1ccccc1)C2)N1CCN(c2ccc(C(F)(F)F)cc2)CC1 [Compound 125, 2-benzyl-2-azaspiro[3.3]heptan-6-yl 4-[4-(trifluoromethyl)phenyl]pipera-zine-1-carboxylate] | 0.1 to 1
C[C@@H]1CN(c2ncc(C(F)(F)F)cn2)C[C@H](C)N1C(=O)NC1CC2(C1)CN(Cc1ccncc1)C2 [Compound 317, (2R,6S)-2,6-dimethyl-N-[2-(pyridin-4-ylmethyl)-2-azaspiro[3.3]heptan-6-yl]-4-[5-(trifluoromethyl)pyrimidin-2-yl]piperazine-1-carboxamide] | 0.1 to 1
C[C@@H]1CN(c2ncc(C(F)(F)F)cn2)C[C@@H](C)N1C(=O)OC1CC2(C1)CN(CCC(C)(C)C)C2 [Compound 145, 2-(3,3-dimethylbutyl)-2-azaspiro[3.3]heptan-6-yl (2R,6R)-2,6-dimethyl-4-[5-(trifluoromethyl)pyrimidin-2-yl]piperazine-1-carboxylate] | 0.1 to 1
C[C@@H]1CN(c2nc3ccc(F)cc3s2)C[C@H](C)N1C(=O)NC1CC2(C1)CN(Cc1ccccc1)C2 [Compound 231, (2R,6S)-N-{2-benzyl-2-azaspiro[3.3]heptan-6-yl}-4-(6-fluoro-1,3-benzothiazol-2-yl)-2,6-dimethylpiperazine-1-carboxamide] | < 0.01
C[C@@H]1CN(c2cnc3ccccc3n2)C[C@H](C)N1C(=O)OC1CC2(C1)CN(Cc1ccccc1)C2 [Compound 172, 2-benzyl-2-azaspiro[3.3]heptan-6-yl (2R,6S)-2,6-dimethyl-4-(quinoxalin-2-yl)piperazine-1-carboxylate] | 0.01 to 0.1
C[C@@H]1CN(c2cnc(C(F)(F)F)cn2)C[C@H](C)N1C(=O)NC1CC2(C1)CN(Cc1ccccc1)C2 [Compound 62, (2R,6S)—N-{2-Benzyl-2-azaspiro[3.3]heptan-6-yl}-2,6-dimethyl-4-[5-(trifluoromethyl)pyrazin-2-yl]piperazine-1-carboxamide] | 0.01 to 0.1
C[C@@H]1CN(c2nc3ccc(F)cc3s2)[C@@H](C)CN1C(=O)NC1CC2(C1)CN(Cc1ccccc1)C2 [Compound 233, (2R,5S)-N-{2-benzyl-2-azaspiro[3.3]heptan-6-yl}-4-(6-fluoro-1,3-benzothiazol-2-yl)-2,5-dimethylpiperazine-1-carboxamide] | < 0.01
Cc1ccsc1CN1CC2(CC(NC(=O)N3[C@H](C)CN(c4ncc(C(F)(F)F)cn4)C[C@@H]3C)C2)C1 [Compound 338, (2R,6S)-2,6-dimethyl-N-{2-[(3-methylthiophen-2-yl)methyl]-2-azaspiro[3.3]heptan-6-yl}-4-[5-(trifluoromethyl)pyrimidin-2-yl]piperazine-1-carboxamide] | < 0.01
C[C@H]1CN(c2ncc(C(F)(F)F)cn2)CCN1C(=O)NC1CC2(C1)CN(Cc1ccccc1)C2 [Compound 5, (2S)-N-{2-benzyl-2-azaspiro[3.3]heptan-6-yl}-2-methyl-4-[5-(trifluoromethyl)pyrimidin-2-yl]piperazine-1-carboxamide] | 0.01 to 0.1
C[C@@H]1CN(c2ncc(C(F)(F)F)cn2)C[C@H](C)N1C(=O)OC1CC2(C1)CN(CC1CCCCC1)C2 [Compound 154, 2-(cyclohexylmethyl)-2-azaspiro[3.3]heptan-6-yl (2R,6S)-2,6-dimethyl-4-[5-(trifluoromethyl)pyrimidin-2-yl]piperazine-1-carboxylate] | 0.01 to 0.1
N#Cc1cc(C(F)(F)F)ccc1N1CCN(C(=O)OC2CC3(C2)CN(Cc2ccccc2)C3)CC1 [Compound 126, 2-benzyl-2-azaspiro[3.3]heptan-6-yl 4-[2-cyano-4-(trifluoromethyl)phenyl]pipera-zine-1-carboxylate] | 0.1 to 1
C[C@@H]1CN(c2cnc(C(F)(F)F)cn2)CCN1C(=O)NC1CC2(C1)CN(Cc1ccccc1)C2 [Compound 22, (2R)-N-{2-benzyl-2-azaspiro[3.3]heptan-6-yl}-2-methyl-4-[5-(trifluoromethyl)pyrazin-2-yl]piperazine-1-carboxamide] | 0.1 to 1
C[C@@H]1CN(c2cnc(C(F)(F)F)cn2)C[C@@H](C)N1C(=O)NC1CC2(C1)CN(Cc1ccccc1)C2 [Compound 64, (2R,6R)-N-{2-benzyl-2-azaspiro[3.3]heptan-6-yl}-2,6-dimethyl-4-[5-(trifluoromethyl)pyrazin-2-yl]piperazine-1-carboxamide] | 0.1 to 1
C[C@@H]1CN(c2ncc(C(F)(F)F)cn2)[C@@H](C)CN1C(=O)NC1CC2(C1)CN(Cc1ccccc1)C2 [Compound 1, (2R,5S)—N-{2-Benzyl-2-azaspiro[3.3]heptan-6-yl}-2,5-dimethyl-4-[5-(trifluoromethyl)pyrimidin-2-yl]piperazine-1-carboxamide] | < 0.01
